Among the data in PubChem BioAssay (NCI) are GI50 and TGI values, retold here.

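Test compounds were applied to cells in 96-well plates for 48 hours at 5 doses. GI50 = concentration required for 50% inhibition of growth. TGI denotes the concentration required for complete inhibition of growth.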 Where a SMILES comes first, the peptide text is derived from it. [ ]: non-standard residue; d: D form. The star is where a group is joined. Phe(4-NO2) = N[CH](Cc1ccc([N+](=O)[O-])cc1)C(=O)O; Boc = CC(C)(C)OC(=O)*; OBn = c1ccc(CO*)cc1

Among the test systems are BT-549 breast; CCRF-CEM leukemia; UACC-257 melanoma; OVCAR-3 ovarian; RPMI-8226 leukemia; PC-3 prostate; MALME-3M melanoma; SF-295 CNS; ACHN renal.
Test in all cases: DTP human tumour cell line panel, 48 h

For the compound `Cn1ccnc1S/C(=C\C=C(C#N)C#N)c1ccc(Cl)cc1`, the values for the GI50 in the test on BT-549 breast and in the test with RPMI-8226 leukemia were 5.14 µM and 19.2 µM, respectively. In addition, the TGI is greater than 28.7 µM in the test on BT-549 breast; greater than 11.2 µM in the test with CCRF-CEM leukemia; 5.5 µM in the test on UACC-257 melanoma; 5.29 µM in the test with OVCAR-3 ovarian; 53.6 µM in the test with RPMI-8226 leukemia; 9.22 µM in the test on PC-3 prostate. The TGI in the test with MALME-3M melanoma was 3.27 µM; in the test on SF-295 CNS, 11.3 µM; in the test on ACHN renal it was 2.09 µM.

For `CC(C)/C(Cl)=N/OC(=O)Nc1ccc(F)c(Cl)c1`, the TGI in the test with BT-549 breast was 9.98 µM; with CCRF-CEM leukemia it was greater than 20.2 µM; in the test with UACC-257 melanoma, 26.5 µM; with OVCAR-3 ovarian, 9.11 µM; in the test on RPMI-8226 leukemia it was 2.97 µM; in the test on PC-3 prostate it was 29.8 µM. The TGI in the test on MALME-3M melanoma stood at 4.08 µM; in the test with SF-295 CNS, 29.8 µM; with ACHN renal, 4.13 µM.

As to `Cc1ccc([N+](=O)[O-])cc1S(=O)(=O)Nc1ccc(C2=NN(c3ccc([N+](=O)[O-])cc3[N+](=O)[O-])C(c3ccccc3)C2)cc1` (stereo unspecified), the TGI in the test with BT-549 breast was 33 µM; in the test on CCRF-CEM leukemia it was greater than 100 µM; in the test with UACC-257 melanoma, 40.7 µM; in the test on OVCAR-3 ovarian, 28.4 µM; in the test on RPMI-8226 leukemia, greater than 100 µM; with PC-3 prostate, 28.8 µM. Moreover, the TGI amounted to 41.6 µM in the test on MALME-3M melanoma, 35.9 µM with SF-295 CNS and 40.3 µM in the test on ACHN renal.

For `COc1cc(-c2nc3cc(F)ccc3s2)ccc1O`, the TGI in the test on BT-549 breast was greater than 100 µM; in the test on CCRF-CEM leukemia, greater than 100 µM; with UACC-257 melanoma, 66.3 µM; in the test on OVCAR-3 ovarian it was 79.1 µM; in the test on RPMI-8226 leukemia it was greater than 100 µM; in the test on PC-3 prostate, greater than 100 µM. Further, the TGI in the test with MALME-3M melanoma, in the test with SF-295 CNS and in the test with ACHN renal was greater than 100 µM throughout.

For the compound `COC(=O)/C=C/c1ccccc1N=[S@](C)(=O)c1ccc(C)cc1`, the TGI in the test with BT-549 breast was greater than 100 µM; in the test with CCRF-CEM leukemia, 44.2 µM; in the test with UACC-257 melanoma it was 56.8 µM; with OVCAR-3 ovarian, 55.8 µM; in the test on RPMI-8226 leukemia it was 61.3 µM; with PC-3 prostate, greater than 100 µM. Further, the values for the total growth inhibition concentration (TGI) with MALME-3M melanoma, with SF-295 CNS and in the test with ACHN renal were greater than 100 µM, 76.9 µM and greater than 100 µM, respectively.

`CC1=NOC2(C1)/C(=N/O)CCC/C2=N\O` (stereo unspecified): the total growth inhibition concentration (TGI) in the test on BT-549 breast, in the test on CCRF-CEM leukemia, with UACC-257 melanoma, in the test with OVCAR-3 ovarian, in the test with RPMI-8226 leukemia and in the test with PC-3 prostate was greater than 100 µM each time. Besides, the TGI in the test on MALME-3M melanoma, in the test with SF-295 CNS and in the test with ACHN renal was greater than 100 µM each time.

On to `CCCCOC(=O)C(=O)C(CCC(=O)c1ccc(C)cc1)C(=O)C=C(C)C` (stereo unspecified), for which the TGI in the test with BT-549 breast, in the test with CCRF-CEM leukemia, in the test with UACC-257 melanoma, in the test on OVCAR-3 ovarian, in the test on RPMI-8226 leukemia and with PC-3 prostate was greater than 100 µM in each case. The TGI in the test on MALME-3M melanoma, with SF-295 CNS and with ACHN renal was greater than 100 µM throughout.

In the case of `Cc1cnoc1NC1=CC(=O)C(=O)c2ccccc21`, the TGI in the test on BT-549 breast was greater than 100 µM; in the test with CCRF-CEM leukemia it was 44.6 µM; in the test on UACC-257 melanoma, 49.3 µM; in the test on OVCAR-3 ovarian, greater than 100 µM; in the test on RPMI-8226 leukemia, 50.3 µM; in the test on PC-3 prostate, greater than 100 µM. For the same compound, the TGI in the test on MALME-3M melanoma is 9.81 µM; in the test on SF-295 CNS, greater than 100 µM; in the test with ACHN renal it was greater than 100 µM.

For `COC(=O)CCC(NC(=O)OC(C)(C)C)C(=O)NC(Cc1ccc([N+](=O)[O-])cc1)C(=O)NCC(=O)OCc1ccccc1` (stereo unspecified) (Boc-Glu(OMe)-[Phe(4-NO2)]-Gly-OBn; configuration not given here), the TGI was 66.9 µM in the test on BT-549 breast; greater than 100 µM in the test with CCRF-CEM leukemia; greater than 100 µM in the test with UACC-257 melanoma; greater than 100 µM in the test with OVCAR-3 ovarian; greater than 100 µM in the test with RPMI-8226 leukemia; greater than 100 µM in the test with PC-3 prostate. Also, the values for the TGI in the test on MALME-3M melanoma, in the test on SF-295 CNS and in the test with ACHN renal were greater than 100 µM, greater than 74.1 µM and greater than 100 µM, respectively.

For `COc1cc2c3cc1Oc1c(O)c(OC)cc4c1[C@H](Cc1ccc(cc1)Oc1cc(ccc1O)C[C@H]3N(C)CC2)N(C)CC4`, the TGI turned out to be 28.4 µM in the test on BT-549 breast; 42.7 µM in the test on CCRF-CEM leukemia; 33.9 µM in the test on UACC-257 melanoma; 28.5 µM in the test with OVCAR-3 ovarian; 20 µM in the test on RPMI-8226 leukemia; 27.1 µM in the test on PC-3 prostate. Besides, the TGI amounted to 36.8 µM in the test on MALME-3M melanoma, 31.3 µM in the test on SF-295 CNS and 61 µM in the test on ACHN renal.

Consider `CCN(CC)Cc1nc2sc3c(c2c(=O)n1-c1ccccc1)CCCC3`, for which the TGI was 53.6 µM in the test with BT-549 breast; greater than 100 µM with CCRF-CEM leukemia; 47.5 µM in the test with UACC-257 melanoma; 34.8 µM with OVCAR-3 ovarian; 81.9 µM in the test with RPMI-8226 leukemia; 34 µM in the test with PC-3 prostate. Besides, the figures for the TGI in the test with MALME-3M melanoma, in the test on SF-295 CNS and in the test on ACHN renal were 45.5 µM, 66.3 µM and 55.2 µM, respectively.
